Laboratory results from publication PMC2994217 (British Journal of Cancer, 2010).
Read-outs that look alike come from different tables or passages of the source.

Experiments:
[1] = oral
Description: Patients were initially treated in cohorts of six per dose level. […] Both drugs were administered orally. […] (Figure 1) The duration of one cycle was 28 days.
Toxicity was evaluated according to the common toxicity criteria for adverse events (AEs) (CTCAEv3.0).

[2] = no reference given, cited from earlier work
[3] = Pharmacokinetics of sirolimus in blood (LC/MS/MS, non-compartmental); format: in vivo, patients; details: for Cmax / AUC(0-t) / half-life: human, whole blood; for half-life: read-out: t ½ (converted)
Description: (§1) A paired t-test on log-transformed values was used to calculate changes in AUC, Cmax and t1/2. A P-value ⩽0.05 was considered significant.

[4] = Pharmacokinetics of sorafenib in plasma (LC/MS/MS, non-compartmental); format: in vivo, patients; details: for Cmax: human, plasma
Description: as §1

[5] = im, 1 mg, DL IM, sor 400 mg b.i.d., sir 1 mg q.d., cycle 1 day 1, single-dose sir, geometric mean (95% CI), n=3
[6] = im, DL IM, sor 400 mg b.i.d., sir 1 mg q.d., cycle 1 day 16, continuous dosing sor on single-dose sir, geometric mean (95% CI), n=3
[7] = oral, 1 mg, DL 0, sor 200 mg b.i.d., sir 1 mg q.d., cycle 1 day 1, single-dose sir, geometric mean (95% CI), n=6
[8] = oral, 2 mg, DL 1, Sor 200 mg b.i.d., sir 2 mg q.d., cycle 1 day 1, single-dose sir, geometric mean (95% CI), n=6
[9] = oral, DL 0, sor 200 mg b.i.d., sir 1 mg q.d., cycle 1 day 16, continuous dosing sor on single-dose sir, geometric mean (95% CI), n=6
[10] = oral, DL 1, Sor 200 mg b.i.d., sir 2 mg q.d., cycle 1 day 16, continuous dosing sor on single-dose sir, geometric mean (95% CI), n=6

For `CO[C@H]1C[C@@H]2CC[C@@H](C)[C@@](O)(O2)C(=O)C(=O)N2CCCC[C@H]2C(=O)O[C@H]([C@H](C)C[C@@H]2CC[C@@H](O)[C@H](OC)C2)CC(=O)[C@H](C)/C=C(\C)[C@@H](O)[C@@H](OC)C(=O)[C@H](C)C[C@H](C)/C=C/C=C/C=C/1C` [sirolimus], the “MTD of the combination, sirolimus dose” value ([1]; combined with sorafenib 200 mg b.i.d.) is given as 1 mg q.d, the “time until mean steady-state concentrations are achieved” value [2] is given as 5 to 7 days and the terminal half-life ([2]; stable renal transplant recipients) is given as 62 ± 12 h. The “change in mean AUC(0−96 h) of sirolimus” value ([3]; DL 0, simultaneous administration of both drugs, P=0.955) was “no change”, the “average reduction of Cmax of sirolimus” value ([3]; DL 0, non-significant, P=0.515) was 18% and the “mean decrease of Cmax of sirolimus” value ([3]; DL 1, pre-treatment with 200 mg b.i.d. sorafenib, P=0.006) was 55%. The “change of mean terminal half-life of sirolimus” value ([3]; DL 1, pre-treatment with 200 mg b.i.d. sorafenib, P=0.66) was “remained unchanged”, the “decrease of AUC(0−96 h) of sirolimus” value ([3]; DL 1, pre-treatment with 200 mg b.i.d. sorafenib, non-significant, P=0.125) was 37% and the “average decrease of Cmax of sirolimus” value ([3]; DLim, P=0.027) was 55%. For the same molecule, the “average decrease of AUC(0−96 h) of sirolimus” value ([3]; DLim, P=0.363) was 25%, the Cmax [3, 5] was 7.99 ng/mL and the AUC(0-t) ([3]; im, 1 mg, DL IM, sor 400 mg b.i.d., sir 1 mg q.d., cycle 1 day 1, single-dose sir, geometric mean (95% CI), n=3, read-out: AUC(0–96 h)) was 139 ng·h/mL. For the same molecule, the half-life [3, 5] was 38.3 h, the AUC(0-t) ([3]; im, AUC(0–12 h), DL IM, sor 400 mg b.i.d., sir 1 mg q.d., cycle 2 day 1, continuous sor on continuous sir, geometric mean (95% CI), n=2) was 101 ng·h/mL and the AUC(0-t) ([3]; im, AUC(0–12 h), DL IM, sor 400 mg b.i.d., sir 1 mg q.d., cycle 2 day 15, continuous sor on continuous sir, n=2) was 113 ng·h/mL. It also gave a Cmax [3, 6] of 3.62 ng/mL, an AUC(0-t) ([3]; im, DL IM, sor 400 mg b.i.d., sir 1 mg q.d., cycle 1 day 16, continuous dosing sor on single-dose sir, geometric mean (95% CI), n=3, read-out: AUC(0–96 h)) of 104 ng·h/mL and a half-life [3, 6] of 32.9 h. The Cmax ([3]; im, DL IM, sor 400 mg b.i.d., sir 1 mg q.d., cycle 2 day 1, continuous sor on continuous sir, geometric mean (95% CI), n=2) was 11.2 ng/mL, the Cmax ([3]; im, DL IM, sor 400 mg b.i.d., sir 1 mg q.d., cycle 2 day 15, continuous sor on continuous sir, geometric mean (95% CI), n=2) was 13.7 ng/mL and the Cmax [3, 7] was 3.81 ng/mL. The AUC(0-t) ([3]; oral, 1 mg, DL 0, sor 200 mg b.i.d., sir 1 mg q.d., cycle 1 day 1, single-dose sir, geometric mean (95% CI), n=6, read-out: AUC(0–96 h)) was 91.1 ng·h/mL, the half-life [3, 7] was 45.5 h and the Cmax [3, 8] was 5.74 ng/mL. The AUC(0-t) ([3]; oral, 2 mg, DL 1, Sor 200 mg b.i.d., sir 2 mg q.d., cycle 1 day 1, single-dose sir, geometric mean (95% CI), n=6, read-out: AUC(0–96 h)) was 124 ng·h/mL, the half-life [3, 8] was 50.5 h and the AUC(0-t) ([3]; oral, AUC(0–12 h), DL 0, sor 200 mg b.i.d., sir 1 mg q.d., cycle 2 day 1, continuous sor on continuous sir, geometric mean (95% CI), n=6) was 59.4 ng·h/mL. It also gave an AUC(0-t) ([3]; oral, AUC(0–12 h), DL 0, sor 200 mg b.i.d., sir 1 mg q.d., cycle 2 day 15, continuous sor on continuous sir, geometric mean (95% CI), n=6) of 57.8 ng·h/mL, an AUC(0-t) ([3]; oral, AUC(0–12 h), DL 1, Sor 200 mg b.i.d., sir 2 mg q.d., cycle 2 day 1, continuous sor on continuous sir, geometric mean (95% CI), n=4) of 88.2 ng·h/mL and an AUC(0-t) ([3]; oral, AUC(0–12 h), DL 1, Sor 200 mg b.i.d., sir 2 mg q.d., cycle 2 day 15, continuous sor on continuous sir, n=1) of 84.6 ng·h/mL. For the same molecule, the Cmax [3, 9] was 3.14 ng/mL, the AUC(0-t) ([3]; oral, DL 0, sor 200 mg b.i.d., sir 1 mg q.d., cycle 1 day 16, continuous dosing sor on single-dose sir, geometric mean (95% CI), n=6, read-out: AUC(0–96 h)) was 91.7 ng·h/mL and the half-life [3, 9] was 56.2 h. It also gave a Cmax ([3]; oral, DL 0, sor 200 mg b.i.d., sir 1 mg q.d., cycle 2 day 1, continuous sor on continuous sir, geometric mean (95% CI), n=6) of 6.3 ng/mL, a Cmax ([3]; oral, DL 0, sor 200 mg b.i.d., sir 1 mg q.d., cycle 2 day 15, continuous sor on continuous sir, geometric mean (95% CI), n=6) of 6.36 ng/mL and a Cmax [3, 10] of 2.6 ng/mL. For the same molecule, the AUC(0-t) ([3]; oral, DL 1, Sor 200 mg b.i.d., sir 2 mg q.d., cycle 1 day 16, continuous dosing sor on single-dose sir, geometric mean (95% CI), n=6, read-out: AUC(0–96 h)) was 78.2 ng·h/mL, the half-life [3, 10] was 52.5 h and the Cmax ([3]; oral, DL 1, Sor 200 mg b.i.d., sir 2 mg q.d., cycle 2 day 1, continuous sor on continuous sir, geometric mean (95% CI), n=5) was 10 ng/mL. For the same molecule, the Cmax ([3]; oral, DL 1, Sor 200 mg b.i.d., sir 2 mg q.d., cycle 2 day 15, continuous sor on continuous sir, n=2) was 17.6 ng/mL and the “effect of sorafenib on AUC(0−96) and Cmax of sirolimus” value ([3]; overall statement of abstract) was “reduced”.
With `CNC(=O)c1cc(Oc2ccc(NC(=O)Nc3ccc(Cl)c(C(F)(F)F)c3)cc2)ccn1` [sorafenib] the “AUC(0–12 h)” value ([4]; DL 1, Sor 200 mg b.i.d., sir 2 mg q.d, cycle 2 day 1, continuous sir on continuous sor, geometric mean (95% CI), n=4) was 39.3 (21–74) (n=4) mg h l^−1, the “mean decrease in AUC(0−12 h) of sorafenib” value ([4]; DLim, 1 mg sirolimus with 400 mg b.i.d. sorafenib, non-significant, P=0.14) was 15% and the “mean decrease in Cmax of sorafenib” value ([4]; DLim, 1 mg sirolimus with 400 mg b.i.d. sorafenib, non-significant, P=0.57) was 8%. For the same molecule, the Cmax ([4]; im, 400 mg b.i.d., DL IM, Sor 400 mg b.i.d., sir 1 mg q.d., cycle 1 day 15, continuous dosing sor, geometric mean (95% CI), n=4) was 13000 ng/mL, the Cmax ([4]; im, DL IM, Sor 400 mg b.i.d., sir 1 mg q.d., cycle 1 day 16, single-dose sir on continuous dosing sor, geometric mean (95% CI), n=4) was 11900 ng/mL and the Cmax ([4]; im, DL IM, Sor 400 mg b.i.d., sir 1 mg q.d., cycle 2 day 1, continuous sir on continuous sor, geometric mean (95% CI), n=4) was 6640 ng/mL. The Cmax ([4]; im, DL IM, Sor 400 mg b.i.d., sir 1 mg q.d., cycle 2 day 15, continuous sir on continuous sor, geometric mean (95% CI), n=2) was 5550 ng/mL, the Cmax ([4]; oral, 200 mg b.i.d., DL 0, Sor 200 mg b.i.d., sir 1 mg q.d., cycle 1 day 15, continuous dosing sor, geometric mean (95% CI), n=6) was 7590 ng/mL and the Cmax ([4]; oral, DL 0, Sor 200 mg b.i.d., sir 1 mg q.d., cycle 2 day 1, continuous sir on continuous sor, geometric mean (95% CI), n=6) was 7120 ng/mL. The Cmax ([4]; oral, DL 0, Sor 200 mg b.i.d., sir 1 mg q.d., cycle 2 day 15, continuous sir on continuous sor, geometric mean (95% CI), n=6) was 7320 ng/mL, the Cmax ([4]; oral, DL 1, Sor 200 mg b.i.d., sir 2 mg q.d, cycle 2 day 1, continuous sir on continuous sor, geometric mean (95% CI), n=4) was 5150 ng/mL and the “effect of sirolimus on the PK of sorafenib” value ([4]; overall statement of abstract) was “did not change”. The “influence of sirolimus on AUC(0−12 h) of sorafenib” value ([4]; single oral doses of 1 mg or 2 mg sirolimus, sorafenib 200 mg b.i.d. multiple dosing, P=0.67) was “did not influence”, the “influence of sirolimus on Cmax of sorafenib” value ([4]; single oral doses of 1 mg or 2 mg sirolimus, sorafenib 200 mg b.i.d. multiple dosing, P=0.96) was “did not influence” and the “MTD of the combination, sorafenib dose” value ([1]; combined with sirolimus 1 mg q.d.) was 200 mg b.i.d. The elimination half-life [2] was 25 to 48 h.
